# Columns and labels:
# Test in all cases: Test D pre-/postemergence plant response
# Assay type in all cases: in vivo
# [1] = tested on: itchgrass (Rottboellia cochinchinensis)
# Method in brief: (§1)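 Seeds were sown in a loam–sand blend and sprayed preemergence with compound in a non-phytotoxic solvent mixture containing surfactant; plants at 2–18 cm (1- to 4-leaf stage) received the same formulation postemergence. After 14 to 21 days in a greenhouse, injury was rated visually against untreated controls (0 = no effect, 100 = complete control).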
# [2] = tested on: mallow (common mallow, Malva sylvestris)
# Method in brief: as §1
# [3] = tested on: barnyardgrass (Echinochloa crus-galli)
# Method in brief: as §1
# [4] = tested on: johnsongrass (Sorghum halepense)
# Method in brief: as §1
# [5] = tested on: goosegrass (Eleusine indica)
# Method in brief: as §1
# [6] = tested on: sandbur (southern sandbur, Cenchrus echinatus)
# Method in brief: as §1
# [7] = tested on: prickly sida (Sida spinosa)
# Method in brief: as §1
# kochia (Kochia scoparia) = tested on: kochia (Kochia scoparia)
# Method in brief: as §1
# [8] = tested on: dallisgrass (Paspalum dilatatum)
# Method in brief: as §1
# [9] = tested on: spanishneedles (Bidens bipinnata)
# Method in brief: as §1
# [10] = tested on: bluegrass (annual bluegrass, Poa annua)
# Method in brief: as §1
# [11] = tested on: dayflower (Virginia (VA) dayflower, Commelina virginica)
# Method in brief: as §1
# [12] = tested on: ragweed (common ragweed, Ambrosia elatior)
# Method in brief: as §1
# [13] = tested on: green foxtail (Setaria viridis)
# Method in brief: as §1
# [14] = Postemergence, 16 g ai/ha, scale 0 to 100
# [15] = Postemergence, 31 g ai/ha, scale 0 to 100
# [16] = Postemergence, 125 g ai/ha, scale 0 to 100 (0 no effect, 100 complete control)
# [17] = Postemergence, 62 g ai/ha, scale 0 to 100 (0 no effect, 100 complete control)
# [18] = Preemergence, 16 g ai/ha, scale 0 to 100, 0 no effect, 100 complete control
# [19] = Preemergence, 31 g ai/ha, scale 0 to 100 (0 no effect, 100 complete control)
# [20] = Preemergence, 62 g ai/ha, scale 0 to 100
# [21] = Preemergence, 125 g ai/ha, scale 0 to 100
# [22] = Postemergence, 31 g ai/ha, scale 0 to 100 (0 no effect, 100 complete control)
smiles,measurement,setting,value
Cc1ccc(F)c(-n2c(-c3ccccc3)ncc(C(=O)C3=C(O)CCCC3=O)c2=O)c1 [Compound 51],"Plant response rating, Itchgrass",[1]; [14],0
same,"Plant response rating, Itchgrass",[1]; [15],20
same,"Plant response rating, Itchgrass",[1]; [16],80
same,"Plant response rating, Itchgrass",[1]; [17],40
same,"Plant response rating, Itchgrass",[1]; [18],0
same,"Plant response rating, Itchgrass",[1]; [19],0
same,"Plant response rating, Itchgrass",[1]; [20],0
same,"Plant response rating, Itchgrass",[1]; [21],0
same,"Plant response rating, Mallow",[2]; [14],0
same,"Plant response rating, Mallow",[2]; [15],0
same,"Plant response rating, Mallow",[2]; [16],20
same,"Plant response rating, Mallow",[2]; [17],0
same,"Plant response rating, Mallow",[2]; [18],0
same,"Plant response rating, Mallow",[2]; [19],0
same,"Plant response rating, Mallow",[2]; [20],0
same,"Plant response rating, Mallow",[2]; [21],65
same,"Plant response rating, Barnyardgrass",[3]; [14],65
same,"Plant response rating, Barnyardgrass",[3]; [22],70
same,"Plant response rating, Barnyardgrass",[3]; [16],70
same,"Plant response rating, Barnyardgrass",[3]; [17],70
same,"Plant response rating, Barnyardgrass",[3]; [18],0
same,"Plant response rating, Barnyardgrass",[3]; [19],0
same,"Plant response rating, Barnyardgrass",[3]; [20],0
same,"Plant response rating, Barnyardgrass",[3]; [21],10
same,"Plant response rating, Johnsongrass",[4]; [14],20
same,"Plant response rating, Johnsongrass",[4]; [15],35
same,"Plant response rating, Johnsongrass",[4]; [16],70
same,"Plant response rating, Johnsongrass",[4]; [17],60
same,"Plant response rating, Johnsongrass",[4]; [18],0
same,"Plant response rating, Johnsongrass",[4]; [19],0
same,"Plant response rating, Johnsongrass",[4]; [20],20
same,"Plant response rating, Johnsongrass",[4]; [21],70
same,"Plant response rating, Goosegrass",[5]; [14],35
same,"Plant response rating, Goosegrass",[5]; [15],65
same,"Plant response rating, Goosegrass",[5]; [16],65
same,"Plant response rating, Goosegrass",[5]; [17],65
same,"Plant response rating, Goosegrass",[5]; [18],20
same,"Plant response rating, Goosegrass",[5]; [19],20
same,"Plant response rating, Goosegrass",[5]; [20],40
same,"Plant response rating, Goosegrass",[5]; [21],40
same,"Plant response rating, Sandbur",[6]; [14],5
same,"Plant response rating, Sandbur",[6]; [15],25
same,"Plant response rating, Sandbur",[6]; [16],60
same,"Plant response rating, Sandbur",[6]; [17],25
same,"Plant response rating, Sandbur",[6]; [18],0
same,"Plant response rating, Sandbur",[6]; [19],0
same,"Plant response rating, Sandbur",[6]; [21],75
same,"Plant response rating, Prickly Sida",[7]; [14],50
same,"Plant response rating, Prickly Sida",[7]; [15],50
same,"Plant response rating, Prickly Sida",[7]; [16],75
same,"Plant response rating, Prickly Sida",[7]; [17],65
same,"Plant response rating, Prickly Sida",[7]; [18],0
same,"Plant response rating, Prickly Sida",[7]; [19],20
same,"Plant response rating, Prickly Sida",[7]; [20],20
same,"Plant response rating, Prickly Sida",[7]; [21],35
same,"Plant response rating, Kochia",kochia (Kochia scoparia); [14],5
same,"Plant response rating, Kochia",kochia (Kochia scoparia); [15],5
same,"Plant response rating, Kochia",kochia (Kochia scoparia); [16],20
same,"Plant response rating, Kochia",kochia (Kochia scoparia); [17],5
same,"Plant response rating, Kochia",kochia (Kochia scoparia); [18],0
same,"Plant response rating, Kochia",kochia (Kochia scoparia); [20],0
same,"Plant response rating, Kochia",kochia (Kochia scoparia); [21],50
same,"Plant response rating, Dallisgrass",[8]; [14],20
same,"Plant response rating, Dallisgrass",[8]; [15],20
same,"Plant response rating, Dallisgrass",[8]; [16],70
same,"Plant response rating, Dallisgrass",[8]; [17],30
same,"Plant response rating, Dallisgrass",[8]; [18],0
same,"Plant response rating, Dallisgrass",[8]; [19],10
same,"Plant response rating, Dallisgrass",[8]; [20],10
same,"Plant response rating, Dallisgrass",[8]; [21],90
same,"Plant response rating, Spanishneedles",[9]; [14],35
same,"Plant response rating, Spanishneedles",[9]; [15],50
same,"Plant response rating, Spanishneedles",[9]; [16],70
same,"Plant response rating, Spanishneedles",[9]; [17],60
same,"Plant response rating, Spanishneedles",[9]; [18],0
same,"Plant response rating, Spanishneedles",[9]; [19],0
same,"Plant response rating, Spanishneedles",[9]; [21],98
same,"Plant response rating, Bluegrass",[10]; [14],0
same,"Plant response rating, Bluegrass",[10]; [22],0
same,"Plant response rating, Bluegrass",[10]; [16],0
same,"Plant response rating, Bluegrass",[10]; [17],0
same,"Plant response rating, Bluegrass",[10]; [18],0
same,"Plant response rating, Bluegrass",[10]; [19],0
same,"Plant response rating, Bluegrass",[10]; [20],0
same,"Plant response rating, Bluegrass",[10]; [21],0
same,"Plant response rating, Dayflower, VA",[11]; [14],10
same,"Plant response rating, Dayflower, VA",[11]; [15],10
same,"Plant response rating, Dayflower, VA",[11]; [16],20
same,"Plant response rating, Dayflower, VA",[11]; [17],10
same,"Plant response rating, Dayflower, VA",[11]; [18],0
same,"Plant response rating, Dayflower, VA",[11]; [19],0
same,"Plant response rating, Dayflower, VA",[11]; [21],0
same,"Plant response rating, Ragweed",[12]; [14],60
same,"Plant response rating, Ragweed",[12]; [15],75
same,"Plant response rating, Ragweed",[12]; [16],85
same,"Plant response rating, Ragweed",[12]; [17],80
same,"Plant response rating, Ragweed",[12]; [18],35
same,"Plant response rating, Ragweed",[12]; [19],50
same,"Plant response rating, Ragweed",[12]; [21],95
same,"Plant response rating, Foxtail, Green",[13]; [14],10
same,"Plant response rating, Foxtail, Green",[13]; [15],20
same,"Plant response rating, Foxtail, Green",[13]; [16],65
same,"Plant response rating, Foxtail, Green",[13]; [17],40
same,"Plant response rating, Foxtail, Green",[13]; [18],0
same,"Plant response rating, Foxtail, Green",[13]; [19],0
same,"Plant response rating, Foxtail, Green",[13]; [20],0
same,"Plant response rating, Foxtail, Green",[13]; [21],0

# — patent publication US8952024B2, “Herbicidal pyrimidone derivatives” (E I du Pont de Nemours and Company, priority 2009, dated 2015)
